Experimental data from EP0337503B1, “Fumigation methods and compositions” (Entek Corporation, priority 1983, dated 1984).

Assays:
nematode larvae = assay: In-vitro nematocidal test: larvae treated in aqueous suspension, injected into root zone of tomato plants, gall count; type: in vivo, Meloidogyne incognita; conditions: larvae treated 1 hour; for Gall Count, replicate 2: control 88; for Gall Count, Mean: control 89; for Gall Count, replicate 1: control 90
Method: The procedure of Example 2 is repeated except that potassium tetrathiocarbonate is substituted for stabilized ammonium tetrathiocarbonate and an in-vitro nematocidal test is used. In the in-vitro test, the nematode larvae are treated in aqueous suspension for 1 hour at the concentrations of fumigant given in the following table, washed twice with water, and injected into the active root zone of the tomato plants. After thirty days the roots are harvested, examined for galling, giving the results summarized below.

[1] = Storage stability: loss of ability of aqueous solutions to generate carbon disulfide upon contact with strong acid; type: physicochemical; conditions: aqueous solutions of tetrathiocarbonate salts, about 14 to about 16 percent by weight carbon disulfide equivalent, air-tight glass containers, 49° C.
Method: Various tetrathiocarbonate salts are evaluated for storage stability by measuring the loss of the ability of aqueous solutions thereof to generate carbon disulfide upon contact with strong acid. Aqueous solutions of the salts listed in the following table, having an equivalent of from about 14 to about 16 percent by weight carbon disulfide, are stored in air-tight glass containers at a temperature of 49° C.

Fusarium oxysporum = assay: Fungicidal test, radial growth of mycelia colonies; type: cell-based
Method: (§1) Thiocarbonate solutions are used in a test of their fungicidal properties. Cultures of four plant pathogenic fungi are grown upon potato dextrose agar at room temperature, in diffuse natural lighting. After one week, square blocks having 2 millimeter sides are cut from the edges of actively growing mycelia spots on the agar.
(§2) The blocks are immersed in sterile deionized water, as a control, or in dilutions of thiocarbonate solutions using the sterile water, in a closed container. Subsequently, the blocks are removed and placed upon agar in clean plates, and mycelia are allowed to grow for one week.
(§3) Radial growth of mycelia colonies is measured for each of the six to eight replicate plates used for a particular fungus, and average colony radius is calculated. Percent control is defined by the following equation: Percent control =[1-((Average radius of treated plates)/(Average radius of control plates))]x100 [formula]
(§4) Concentrations given for solutions used to treat the agar blocks are expressed in grams of thiocarbonate solution per liter of diluted solution.

Phytophthora cinnamomi = assay: Fungicidal test, radial growth of mycelia colonies; type: cell-based
Method: as §1, §2, §3, §4

Sclerotium rolfsii = assay: Fungicidal test, radial growth of mycelia colonies; type: cell-based
Method: as §1, §2, §3, §4

Verticillium dahliae = assay: Fungicidal test, radial growth of mycelia colonies; type: cell-based
Method: as §1, §2, §3, §4

[2] = Decomposition in sandy loam soil at different moisture, CS2 in air space by gas chromatography; type: physicochemical; conditions: hours to maximum CS2 concentration in the air space
Method: A sandy loam soil is placed in 1-liter glass bottles, fitted with stoppers having fluorocarbon liners and silicone rubber septa, to give a soil depth of about 4 cm. […] Thiocarbonate solution or carbon disulfide is injected near the bottom of the soil layer, the bottles are promptly sealed, and the air space in the bottles is sampled at intervals with a syringe, for gas chromatographic analysis of CS2. Results are summarized below, wherein degradation time is the number of hours required to achieve the maximum CS2 concentration in the air space.

[3] = system: root-knot nematode larvae (Meloidogyne incognita); assay: Greenhouse nematocide experiment with tomato plants, soil drench, root gall count; type: in vivo; conditions: 30 days; for Gall Counts, replicate 3: control 1; for Gall Counts, Mean: control 4.0; for Gall Counts, replicate 2: control 7; for Gall Counts, replicate 1: control 4
Method: In the experiment, thirty containers are used, each containing about 500 grams of sterilized sandy loam soil. Each container contains one tomato plant. Each container is injected with four 5-milliliter portions of extract from nematode-infested pepper roots, one inch below the soil surface, producing an initial population of 2000 root-knot nematode larvae (Meloidogyne incognita) per container.
Ten treatments are replicated three times, each treatment consisting of drenching the soil with a solution containing the fumigant to provide the dosage of CS2 given in the following table. The solutions are diluted with sufficient water to saturate the soil. The treatments include calcium tetrathiocarbonate, stabilized ammonium tetrathiocarbonate, and carbon disulfide at three levels, plus an untreated control. After drenching, each container is allowed to stand at ambient conditions. The plants are harvested after 30 days of growth, and soil is removed from the roots by a gentle washing with water. By use of a magnifying glass, the number of root galls is counted on each plant.
Results are summarized below, wherein the "Application" represents milligrams of treatment per kilogram of soil, calculated as the thiocarbonate salt and the equivalent carbon disulfide. Gall counts are mean values from the three replicates.

[4] = Effect of pH on production of CS2 from thiocarbonates in citrate-phosphate buffers, gas chromatography of air; type: physicochemical
Method: Pure carbon disulfide is also injected, for comparison. A syringe is used to periodically sample air in the bottle, and the air is analyzed by gas chromatography.

[5] = 50 ppm salt (6.3 ppm CS2 equiv. CaCS4; 6.5 ppm K2CS4)
[6] = 100 ppm salt (12.5 ppm CS2 equiv. CaCS4; 13 ppm K2CS4)
[7] = 150 ppm salt (18.8 ppm CS2 equiv. CaCS4; 19.5 ppm K2CS4)
[8] = 1 g/l, listed as K2CS4 (9.43%CS2)
[9] = 10 g/l, listed as K2CS4 (9.43%CS2)
[10] = Soil Moisture 0 % of Saturation
[11] = Soil Moisture 50 % of Saturation
[12] = Soil Moisture 100 % of Saturation
[13] = 100 g/l thiocarbonate solution per liter of diluted solution
[14] = highest application: 638/89 ppm ((NH4)2CS4·(NH4)2S), 730/91 (CaCS4), 97 ppm (CS2)
[15] = lowest application: 213/30 ppm ((NH4)2CS4·(NH4)2S), 245/31 (CaCS4), 32 ppm (CS2)
[16] = middle application: 425/60 ppm ((NH4)2CS4·(NH4)2S), 490/61 (CaCS4), 65 ppm (CS2)

For `S=C(S)SS` [Formula K2CS4, potassium tetrathiocarbonate], the “Gall Count, replicate 2” value (nematode larvae; [5]) was 66, the “Gall Count, Mean” value (nematode larvae; [5]) was 49.5 and the “Gall Count, replicate 1” value (nematode larvae; [5]) was 33. The “Gall Count, replicate 2” value (nematode larvae; [6]) was 145, the “Gall Count, Mean” value (nematode larvae; [6]) was 171.5 and the “Gall Count, replicate 1” value (nematode larvae; [6]) was 198. For the same compound, the “Gall Count, replicate 2” value (nematode larvae; [7]) was 22, the “Gall Count, Mean” value (nematode larvae; [7]) was 35.5 and the “Gall Count, replicate 1” value (nematode larvae; [7]) was 49. For the same compound, the “Half-life (months)” value ([1]; listed as K^+) was 2.9 months, the “Percent Control Fusarium oxysporum” value (Fusarium oxysporum; [8]) was 8% and the “Percent Control Fusarium oxysporum” value (Fusarium oxysporum; [9]) was 10%. For the same compound, the “Percent Control Fusarium oxysporum” value (Fusarium oxysporum; 100 g/l thiocarbonate solution per liter of diluted solution, listed as K2CS4 (9.43%CS2)) was 76%, the “Percent Control Phytophthora cinnamomi” value (Phytophthora cinnamomi; [8]) was 56% and the “Percent Control Phytophthora cinnamomi” value (Phytophthora cinnamomi; [9]) was 68%. For the same compound, the “Percent Control Phytophthora cinnamomi” value (Phytophthora cinnamomi; 100 g/l) was 100%, the “Percent Control Sclerotium rolfsii” value (Sclerotium rolfsii; [8]) was 42% and the “Percent Control Sclerotium rolfsii” value (Sclerotium rolfsii; [9]) was 8%. The “Percent Control Sclerotium rolfsii” value (Sclerotium rolfsii; 100 g/l) was 100%, the “Percent Control Verticillium dahliae” value (Verticillium dahliae; [8]) was 27% and the “Percent Control Verticillium dahliae” value (Verticillium dahliae; [9]) was 15%. The “Percent Control Verticillium dahliae” value (Verticillium dahliae; 100 g/l) was 100%, the “Degradation Time” value [2, 10] was 2 h and the “Degradation Time” value [2, 11] was 5 h. For the same compound, the “Degradation Time” value [2, 12] was 48 h.
With `S=C(S)SS` [NH4^+, ammonium tetrathiocarbonate] the “Half-life (months)” value [1] was 0.17 months.
With `S=C(S)SS` [Na2CS4 (10.6%CS2), sodium tetrathiocarbonate] the “Half-life (months)” value ([1]; listed as Na^+) was 3.0 months, the “Percent Control Fusarium oxysporum” value (Fusarium oxysporum; 1 g/l) was 4% and the “Percent Control Fusarium oxysporum” value (Fusarium oxysporum; 10 g/l) was 6%. The “Percent Control Fusarium oxysporum” value (Fusarium oxysporum; [13]) was 100%, the “Percent Control Phytophthora cinnamomi” value (Phytophthora cinnamomi; 10 g/l) was 37% and the inhibition of growth at 100000 µg/mL (Phytophthora cinnamomi; Phytophthora cinnamomi, 168 h, 100 g/l, read-out: Percent Control Phytophthora cinnamomi) was 100%. For the same compound, the “Percent Control Sclerotium rolfsii” value (Sclerotium rolfsii; 10 g/l) was 100%, the inhibition of growth at 100000 µg/mL (Sclerotium rolfsii; Agroathelia rolfsii, 168 h, 100 g/l, read-out: Percent Control Sclerotium rolfsii) was 100% and the “Percent Control Verticillium dahliae” value (Verticillium dahliae; 1 g/l) was 23%. The inhibition of growth (Verticillium dahliae; Verticillium dahliae, 168 h, 10 g/l, read-out: Percent Control Verticillium dahliae) was 26% and the inhibition of growth at 100000 µg/mL (Verticillium dahliae; Verticillium dahliae, 168 h, 100 g/l, read-out: Percent Control Verticillium dahliae) was 100%.
In the case of “stabilized ammonium tetrathiocarbonate [(NH4)2CS4·(NH4)2S]”, the “Gall Counts, replicate 3” value [3, 14] is reported as 2, the “Gall Counts, Mean” value [3, 14] is reported as 4.3 and the “Gall Counts, replicate 2” value [3, 14] is reported as 5. The “Gall Counts, replicate 1” value ([3]; highest application: 638 ppm salt/89 ppm Eq. CS2 ((NH4)2CS4·(NH4)2S), 730/91 (CaCS4), 97 ppm (CS2)) was 6, the “Gall Counts, replicate 3” value [3, 15] was 3 and the “Gall Counts, Mean” value [3, 15] was 5.0. The “Gall Counts, replicate 2” value [3, 15] was 7, the “Gall Counts, replicate 1” value ([3]; lowest application: 213 ppm salt/30 ppm Eq. CS2 ((NH4)2CS4·(NH4)2S), 245/31 (CaCS4), 32 ppm (CS2)) was 5 and the “Gall Counts, replicate 3” value [3, 16] was 6. For the same compound, the “Gall Counts, Mean” value [3, 16] was 10.0, the “Gall Counts, replicate 2” value [3, 16] was 15 and the “Gall Counts, replicate 1” value ([3]; middle application: 425 ppm salt/60 ppm Eq. CS2 ((NH4)2CS4·(NH4)2S), 490/61 (CaCS4), 65 ppm (CS2)) was 9. For the same compound, the “Half-life (minutes) for production of carbon disulfide” value (“Half-life (minutes) for production” for short) ([4]; pH 5.2, 125 milligrams per liter of thiocarbonate ion) was 1 min, the “Half-life (minutes) for production” value ([4]; pH 6.0, 125 milligrams per liter of thiocarbonate ion) was 1 min and the “Half-life (minutes) for production” value ([4]; pH 7.0, 125 milligrams per liter of thiocarbonate ion) was 2.1 min. For the same compound, the “Half-life (minutes) for production” value ([4]; pH 8.0, 125 milligrams per liter of thiocarbonate ion, CaCS4 values above pH 7 called unreliable) was 9.2 min, the “Half-life (minutes) for production” value ([4]; pH 9.0, 125 milligrams per liter of thiocarbonate ion, CaCS4 values above pH 7 called unreliable) was 26.1 min and the “Percent Control Fusarium oxysporum” value (Fusarium oxysporum; 1 g/l) was 70%. For the same compound, the “Percent Control Fusarium oxysporum” value (Fusarium oxysporum; 10 g/l) was 100%, the “Percent Control Fusarium oxysporum” value (Fusarium oxysporum; [13]) was 100% and the “Percent Control Phytophthora cinnamomi” value (Phytophthora cinnamomi; 1 g/l) was 97%. For the same compound, the “Percent Control Phytophthora cinnamomi” value (Phytophthora cinnamomi; 10 g/l) was 74%, the “Percent Control Phytophthora cinnamomi” value (Phytophthora cinnamomi; 100 g/l) was 100% and the “Percent Control Sclerotium rolfsii” value (Sclerotium rolfsii; 1 g/l) was 49%. For the same compound, the “Percent Control Sclerotium rolfsii” value (Sclerotium rolfsii; 10 g/l) was 93%, the “Percent Control Sclerotium rolfsii” value (Sclerotium rolfsii; 100 g/l) was 100% and the “Percent Control Verticillium dahliae” value (Verticillium dahliae; 1 g/l) was 41%. For the same compound, the “Percent Control Verticillium dahliae” value (Verticillium dahliae; 10 g/l) was 81%, the “Percent Control Verticillium dahliae” value (Verticillium dahliae; 100 g/l) was 91% and the “Degradation Time” value [2, 10] was 2 h. For the same compound, the “Degradation Time” value [2, 11] was 3 h and the “Degradation Time” value [2, 12] was 48 h.
